Values of other authors, collected in patent US6043366A (priority 1997, dated 2000).

Experiments:
[1] = tested on: LC 132 receptor; conditions: cells in culture
[2] = tested on: mice

## OFQ: seventeen amino-acid-long peptide (F-G-G-F-T-G-A-R-K-S-A-R-K-L-A-N-Q), isolated from rat brain, natural ligand to the G-protein coupled receptor OFQ-R (FGGFTGARKSARKLANQ; Nociceptin; UniProt Q13519 130-146, looked up)
[1]
  adenylate cyclase in CHO(LC 132+) cells: inhibits adenylate cyclase
[2]; administered intra-cerebroventricularly to mice
  hyperalgesia: induces hyperalgesia
[2]; injected intra-cerebroventricularly in mice
  locomotive activity: slowed down locomotive activity
